What was measured:
[1] = target: T1, TLR7 (Mus musculus, UniProt P58681); assay: Mouse splenocytes stimulated with R848 (TLR7 ligand), IL-6 by immunoassay; format: cell-based
T1 construct: The dispersed splenocytes were pelleted by centrifugation, then resuspended in fresh medium; endogenous in cells; host or cells: primary splenocytes of BALB/c mice
T1 sequence (P58681 27-1050): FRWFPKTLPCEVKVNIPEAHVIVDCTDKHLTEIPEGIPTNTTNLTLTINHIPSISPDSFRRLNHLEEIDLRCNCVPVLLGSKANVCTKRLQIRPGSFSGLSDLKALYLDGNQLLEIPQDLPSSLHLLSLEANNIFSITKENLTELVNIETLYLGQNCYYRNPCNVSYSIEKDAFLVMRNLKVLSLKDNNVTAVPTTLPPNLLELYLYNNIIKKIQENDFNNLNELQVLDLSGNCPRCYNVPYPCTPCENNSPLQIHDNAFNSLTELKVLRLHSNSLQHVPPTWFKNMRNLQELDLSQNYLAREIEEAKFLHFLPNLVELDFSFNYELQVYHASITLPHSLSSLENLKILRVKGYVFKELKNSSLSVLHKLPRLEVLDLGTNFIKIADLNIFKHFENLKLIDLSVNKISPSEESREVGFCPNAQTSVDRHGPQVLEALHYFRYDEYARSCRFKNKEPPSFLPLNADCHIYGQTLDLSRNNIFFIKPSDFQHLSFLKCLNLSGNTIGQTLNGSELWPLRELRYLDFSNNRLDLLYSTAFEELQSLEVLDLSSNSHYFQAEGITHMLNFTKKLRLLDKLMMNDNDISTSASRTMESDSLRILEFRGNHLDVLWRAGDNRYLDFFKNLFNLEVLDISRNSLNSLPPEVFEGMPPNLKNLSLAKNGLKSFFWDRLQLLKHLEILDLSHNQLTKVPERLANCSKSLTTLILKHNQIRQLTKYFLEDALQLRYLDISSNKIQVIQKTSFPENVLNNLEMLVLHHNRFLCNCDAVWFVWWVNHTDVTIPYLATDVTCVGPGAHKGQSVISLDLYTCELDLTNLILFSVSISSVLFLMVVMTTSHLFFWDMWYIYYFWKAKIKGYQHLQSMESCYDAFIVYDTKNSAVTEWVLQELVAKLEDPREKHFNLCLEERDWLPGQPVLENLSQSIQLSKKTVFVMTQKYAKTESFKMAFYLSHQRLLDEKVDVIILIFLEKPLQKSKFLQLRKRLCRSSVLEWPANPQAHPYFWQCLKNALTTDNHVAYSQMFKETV
Protocol: (§1) Modified and unmodified immunoregulatory polynucleotides (IRPs) (i.e., polynucleotides containing at least one modified or unmodified IRS) or control samples were assayed for immunoregulatory (IR) activity of innate immune responses on human and mouse cells.
(§2) For mouse cell assays, spleens from 6-12 week-old BALB/c mice spleen were harvested and mechanically dispersed by forcing the digested fragments through metal screens. The dispersed splenocytes were pelleted by centrifugation, then resuspended in fresh medium (RPMI 1640 with 10% fetal calf serum, plus 50 units/mL penicillin, 50 μg/mL streptomycin, 2 mM glutamine, and 0.05 mM β-mercaptoethanol). In a dose-dependent manner, the cells were then stimulated with […] of 1018 ISS (TLR9 ligand; 5′-[…]-3′ (SEQ ID NO:122)) or 1 μM of R848 (TLR7 ligand; a small molecule, an imidazoquinoline also called resiquimod) either alone or in the presence of the tested IRPs. At 48 hours, supernatants were collected and cytokine levels, IL-6, were measured using immunoassays. […]

[2] = target: T2, TLR9 (Mus musculus, UniProt Q9EQU3); assay: Mouse splenocytes stimulated with 1018 ISS (TLR9 ligand), IL-6 by immunoassay; format: cell-based; settings: TLR9 stimulation (1018 ISS)
T2 construct: The dispersed splenocytes were pelleted by centrifugation, then resuspended in fresh medium; endogenous in cells; host or cells: primary splenocytes of BALB/c mice
T2 sequence (Q9EQU3 26-1032): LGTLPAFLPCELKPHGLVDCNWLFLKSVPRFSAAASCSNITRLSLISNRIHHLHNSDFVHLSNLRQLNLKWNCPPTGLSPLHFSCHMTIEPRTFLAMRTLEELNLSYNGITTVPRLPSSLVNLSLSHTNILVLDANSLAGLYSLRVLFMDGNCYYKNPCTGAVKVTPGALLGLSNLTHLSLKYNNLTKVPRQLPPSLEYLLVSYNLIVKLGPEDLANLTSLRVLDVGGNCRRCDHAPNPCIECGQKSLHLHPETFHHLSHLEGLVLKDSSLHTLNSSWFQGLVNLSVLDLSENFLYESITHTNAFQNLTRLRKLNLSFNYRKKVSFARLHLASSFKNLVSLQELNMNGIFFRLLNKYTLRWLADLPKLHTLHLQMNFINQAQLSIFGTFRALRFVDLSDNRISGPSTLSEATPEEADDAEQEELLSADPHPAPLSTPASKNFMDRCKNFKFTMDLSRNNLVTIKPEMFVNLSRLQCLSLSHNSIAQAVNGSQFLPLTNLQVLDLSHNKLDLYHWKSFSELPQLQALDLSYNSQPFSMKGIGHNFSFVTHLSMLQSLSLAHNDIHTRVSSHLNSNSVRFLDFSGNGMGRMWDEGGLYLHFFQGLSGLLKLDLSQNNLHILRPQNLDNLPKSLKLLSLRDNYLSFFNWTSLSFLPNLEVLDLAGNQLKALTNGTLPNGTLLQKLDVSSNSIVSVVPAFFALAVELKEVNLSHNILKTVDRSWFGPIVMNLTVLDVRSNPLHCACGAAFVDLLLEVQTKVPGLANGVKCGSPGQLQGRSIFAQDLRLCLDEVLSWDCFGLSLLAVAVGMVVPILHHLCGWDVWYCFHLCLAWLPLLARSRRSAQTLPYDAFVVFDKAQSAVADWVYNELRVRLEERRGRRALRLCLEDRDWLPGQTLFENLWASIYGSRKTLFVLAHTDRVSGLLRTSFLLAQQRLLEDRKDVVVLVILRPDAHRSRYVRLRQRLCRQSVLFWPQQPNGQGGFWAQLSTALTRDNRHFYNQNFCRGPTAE
Protocol: as §1, §2

[3] = tested on: PDC; assay: In vivo cell survival after escalating dose of Dexthametasone in 129 mice; design: species or system mouse; settings: 0.5 mg-4 mg, 16 hours, spleen and blood
Protocol: To investigate whether PDC are sensitive to glucorticoid induced death in vivo, 129 mice were treated with escalating dose of Dexthametasone (0.5 mg-4 mg) and after 16 hours spleen and blood was harvest. Cell survival was measured by flow cytometry. The number of viable cells was evaluated by flow cytometry by comparing to a fixed amount of microbeads that was added in equal amount in all samples prior to the measure on the flow cytometry.
Specific markers were used to identify specific subsets. Cells were identified to be PDC by the surface presence of B220, CD11c, and PDCA1 marker. Myeloid dendritic cells were identified as to be CD11c positive and B220 negative. B-cells were identified as B220 positive cells and CD11c negative. Monocytes were identified as CD11b positive. Cell viability using cells from spleen tissue under increasing Dexthametason dose was evaluated and results are shown in FIG. 32. Similar results were obtained using blood (data not shown). PDC were sensitive to glucorticoid induced death in vivo.

[4] = target: T3, TLR9 (Homo sapiens, UniProt Q9NR96); assay: Human PDC activated with CpG-C ISS C274, IFN-α production, IRS coupled to Ficoll 400; format: cell-based; design: innate immune responses on human plasmacytoid dendritic cells (PDCs); endogenous in cells; host or cells: human plasmacytoid dendritic cells (PDCs); settings: compared with IRS not coupled
T3 sequence (Q9NR96 26-1032): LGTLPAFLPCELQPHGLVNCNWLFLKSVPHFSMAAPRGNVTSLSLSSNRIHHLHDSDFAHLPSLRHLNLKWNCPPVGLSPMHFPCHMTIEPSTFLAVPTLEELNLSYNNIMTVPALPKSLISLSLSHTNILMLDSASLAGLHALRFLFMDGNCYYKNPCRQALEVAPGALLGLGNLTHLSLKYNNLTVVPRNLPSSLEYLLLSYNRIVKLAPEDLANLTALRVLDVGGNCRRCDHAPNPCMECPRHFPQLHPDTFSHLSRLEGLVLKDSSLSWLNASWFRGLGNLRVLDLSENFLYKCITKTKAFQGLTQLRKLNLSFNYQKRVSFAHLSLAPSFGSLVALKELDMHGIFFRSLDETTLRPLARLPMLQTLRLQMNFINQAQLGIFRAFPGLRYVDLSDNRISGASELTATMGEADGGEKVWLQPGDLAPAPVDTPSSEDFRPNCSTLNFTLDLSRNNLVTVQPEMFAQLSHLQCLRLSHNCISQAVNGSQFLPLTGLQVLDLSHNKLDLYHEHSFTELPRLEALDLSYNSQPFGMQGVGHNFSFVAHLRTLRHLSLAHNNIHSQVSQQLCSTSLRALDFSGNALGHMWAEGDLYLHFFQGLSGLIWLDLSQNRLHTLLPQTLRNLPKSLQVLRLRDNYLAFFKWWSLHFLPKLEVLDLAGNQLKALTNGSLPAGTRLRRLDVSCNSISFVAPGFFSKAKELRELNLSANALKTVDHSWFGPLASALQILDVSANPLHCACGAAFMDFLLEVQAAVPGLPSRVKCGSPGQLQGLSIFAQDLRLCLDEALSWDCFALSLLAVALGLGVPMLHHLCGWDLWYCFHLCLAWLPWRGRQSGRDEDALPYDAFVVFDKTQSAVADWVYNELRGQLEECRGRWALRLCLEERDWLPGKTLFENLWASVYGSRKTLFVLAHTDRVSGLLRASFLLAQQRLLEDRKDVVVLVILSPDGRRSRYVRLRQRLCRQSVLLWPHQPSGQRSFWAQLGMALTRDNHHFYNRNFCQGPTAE
Description: To further investigate whether it is possible to increase IRS activity with respect to inhibition of IFN-α production by aggregating IRS molecule onto a higher order molecule, we have generated molecules that are composed by IRS oligonucleotides that are covalently associated to Ficoll 400, a neutral, highly branched, hydrophilic polymer of sucrose. The nature of this sugar allowed us to link between 10 to over 100 IRS oligos per Ficoll molecule.
The conjugation of oligonucleotides to ficoll as practiced currently consists of four reaction steps: (I) The commercially obtained ficoll is carboxymethylated by reaction of ficoll with chloroacetic acid in base. (II) After neutralization and dialysis, product is reacted with ethylene diamine in the presence of the 1-ethyl-3-[3-(dimethylaminopropyl]carbodiimide) EDC to give product (III). After dialysis Product (III) is reacted with (sulfosuccinimidal 4-[N-maleimidyl]-cyclohexane-1-carboxylate) SMCC to give the ficoll-maleimide product (IV). The thiol-reactive species (IV) is then reacted with the oligonucleotide thiol to give the final product (V), a multioligonucleotide conjugate of ficoll.
Thus, it is possible to increase IRS activity with respect to inhibition of IFN-α production by aggregating IRS molecule onto a higher order molecule.

5′-UGCUCCUGGAGGGG UUGU-3′ (DNA TGCTCCTGGAGGGGTTGT; all LNA, backbone and methylation of C not given here) [SEQ ID NO:161]
IL-6 levels compared to unmodified SEQ ID NO:123 [1]: failed to result in a significant decreased | IL-6 levels compared to unmodified SEQ ID NO:123 [2]: failed to result in a significant decreased

C[C@@H]1C[C@H]2[C@@H]3CCC4=CC(=O)C=C[C@]4(C)[C@@]3(F)[C@@H](O)C[C@]2(C)[C@@]1(O)C(=O)CO [Dexthametasone]
PDC sensitivity to glucorticoid induced death in vivo [3]: sensitive

IRS-Ficoll 400: 5′-TGCTCCTGGAGGGGTTGT-3′ (SEQ ID NO:123) coupled to Ficoll 400 (coupled to Ficoll 400, backbone chemistry not given here)
activity for blocking IFN-α production by PDC [4]: much increased activity

From patent US9476053B2, “Methods and compositions for inhibition of immune responses and autoimmunity” (Dynavax Technologies Corporation, priority 2007, dated 2016)
